Entries after “also recorded” stand apart in the source; their conditions may differ.
Experiments:
Type in all cases: cell-based, human
NCI-H929 [1] = assay: Ki-67 stain (flow cytometry); settings: NCI-H929, 500 pM, 3 days
Description: (§1) Senescence induced β-galactosidase (β-gal) activity was detected as described previously (Debacq-Chainiaux et al. (2009) Nat. Protoc., 4: 1798-1806) and in Supplemental methods. To detect Ki-67 protein, cells were stained and analyzed by flow cytometry as described in Supplemental methods.
(§2) After treatment, cells were fixed with methanol on ice and then incubated with anti-Ki-67 rabbit IgG (Abcam). Cells were then stained with anti-rabbit IgG-FITC (Sigma) and analyzed by flow cytometry.

MM1-144 [2] = assay: Ki-67 stain (flow cytometry); settings: MM1-144, 500 pM, 3 days
Description: as §1, §2

NCI-H929 [3] = assay: Senescence induced β-gal activity at pH 6 (C12FDG, flow cytometry); settings: 1 nM, 3 days, listed as anti-CD138-IFNα2
Description: (§3) Senescence induced β-galactosidase (β-gal) activity was detected as described previously (Debacq-Chainiaux et al. (2009) Nature Protocols, 4: 1798-1806). […] To induce lysosomal alkalinization, cells were incubated in 100 nM bafilomycin A1 (Sigma) for 1 h. Then cells were incubated for 30 min with the β-gal substrate dodecanoylaminofluorescein di-β-D-galactopyranoside (C12FDG; Invitrogen), which becomes fluorescent after cleavage by β-gal. After washing twice with cold PBS, cells were resuspended in cold PBS containing 1 mM phenylethyl thiogalactoside (PETG), a β-gal inhibitor, and analyzed by flow cytometry for C12-fluorescein.
(§4) Intracellular β-galactosidase (β-gal) activity was measured as an indicator for replicative senescence. […] After treatment, cells were incubated with 100 nM bafilomycin A1 (Sigma) for 1 hour to induce lysosomal alkalinization. Then cells were incubated for 30 minutes with the 33 μM of β-gal substrate dodecanoylaminofluorescein di-β-D-galactopyranoside (C12FDG; Invitrogen), which becomes fluorescent after cleavage to C12-fluorescein. After washing twice with cold PBS, cells were resuspended in cold PBS containing 1 mM phenylethyl thiogalactoside (PETG), a β-gal inhibitor, and analyzed by flow cytometry for C12-fluorescein.

OCI-My5 [4] = assay: as above
Description: as §3, §4

MM1-144 [5] = assay: as above; settings: MM1-144, 1 nM, 3 days
Description: as §3, §4

ANBL-6 [6] = assay: as above; settings: ANBL-6, 1 nM, 3 days (data not shown)
Description: as §3, §4

U266 [7] = assay: as above; settings: U266, 1 nM, 3 days
Description: as §3, §4

OCI-My5 [8] = assay: MTS assay (cell viability / metabolic activity); settings: OCI-My5, 3 days
Description: (§5) Percent cell viability was determined using MTS solution (Promega, Madison, Wis.) by measuring absorbance at 490 nm using a Synergy HT Multi-Detection Microplate Reader (BioTek Instruments, Inc., Winooski, Vt.) with untreated cells being 100%. GraphPad Prism (GraphPad Software Inc., La Jolla, Calif.) was used to analyze data by non-linear regression with the log (inhibitor) vs. the response with a variable slope with the IC50 calculated. Data are expressed as a percentage of maximum metabolic activity. The experiments were performed in triplicate.
as §5, with “Metabolic activity” for “Percent cell viability”, “(Promega)” for “(Promega, Madison, Wis.)”, “Instruments Inc.)” for “Instruments, Inc., Winooski, Vt.)”, “Inc.)” for “Inc., La Jolla, Calif.)”, “versus” for “vs.”, “slope.” for “slope with the IC50 calculated.”

MM1-144 [9] = assay: MTS assay (cell viability / metabolic activity); settings: MM144 (MM1-144), 3 days
Description: as §5
as §5, with “Metabolic activity” for “Percent cell viability”, “(Promega)” for “(Promega, Madison, Wis.)”, “Instruments Inc.)” for “Instruments, Inc., Winooski, Vt.)”, “Inc.)” for “Inc., La Jolla, Calif.)”, “versus” for “vs.”, “slope.” for “slope with the IC50 calculated.”

ANBL-6 [10] = assay: MTS assay (cell viability / metabolic activity); settings: ANBL-6, 3 days or 7 days
Description: as §5
as §5, with “Metabolic activity” for “Percent cell viability”, “(Promega)” for “(Promega, Madison, Wis.)”, “Instruments Inc.)” for “Instruments, Inc., Winooski, Vt.)”, “Inc.)” for “Inc., La Jolla, Calif.)”, “versus” for “vs.”, “slope.” for “slope with the IC50 calculated.”

U266 [11] = assay: MTS assay (cell viability / metabolic activity); settings: U266, 3 days
Description: as §5
as §5, with “Metabolic activity” for “Percent cell viability”, “(Promega)” for “(Promega, Madison, Wis.)”, “Instruments Inc.)” for “Instruments, Inc., Winooski, Vt.)”, “Inc.)” for “Inc., La Jolla, Calif.)”, “versus” for “vs.”, “slope.” for “slope with the IC50 calculated.”

8226/S = assay: MTS assay (cell viability / metabolic activity); settings: 8226/S (RPMI 8226), 3 days or 4 days
Description: as §5
as §5, with “Metabolic activity” for “Percent cell viability”, “(Promega)” for “(Promega, Madison, Wis.)”, “Instruments Inc.)” for “Instruments, Inc., Winooski, Vt.)”, “Inc.)” for “Inc., La Jolla, Calif.)”, “versus” for “vs.”, “slope.” for “slope with the IC50 calculated.”

[12] = system: primary myeloma cells from patients; assay: Treatment of primary myeloma cells from patients (trypan blue / MTT)
Description: Trypan blue and MTT assays were used to determine the number of viable cells. The percentage of viable recovered cells was calculated based upon the number of viable cells recovered from DMSO-treated control cells, which was arbitrarily designated as 100%.
Percent viable cell recovery was determined by trypan blue staining, with untreated control cells designated as 100%.

OCI-My5 [13] = assay: Cell cycle analysis (PI DNA content, flow cytometry); settings: OCI-My5, 500 pM, 4 days
Description: (§6) Cells were incubated with 1 ml of hypotonic DNA staining buffer (1 mg/ml sodium citrate, 100 μg/ml PI, 20 μg/ml RNase A, and 0.3% Triton X-100 in dH2O) for 30-60 min at 4° C. in the dark. Cells were analyzed by flow cytometry and cell cycle analysis performed using FlowJo software with the Watson Model.
(§7) Cells were incubated with 1 ml of hypotonic DNA staining buffer (1 mg/ml sodium citrate, 100 μg/ml PI, 20 μg/ml RNase A, and 0.3% Triton X-100) for 30-60 minutes at 4° C. in the dark. Cells were analyzed by flow cytometry and cell cycle analysis performed using FlowJo software with the Watson Model.

MM1-144 [14] = assay: as above; settings: MM1-144, 500 pM, 4 days
Description: as §6, §7

ANBL-6 [15] = assay: as above; settings: ANBL-6, 500 pM, 4 days
Description: as §6, §7

## anti-CD138-IFNα: Fusion protein: murine B-B4 anti-CD138 variable regions, human IgG1κ constant regions, human IFNα2 fused to the antibody C-terminus via SGGGGS linker
NCI-H929 [1]
  Ki-67 negative (non-dividing) cells, result in words: more Ki-6T cells as compared to untreated control
MM1-144 [2]
  Ki-67 negative (non-dividing) cells, result in words: more Ki-6T cells as compared to untreated control
NCI-H929 [3]
  β-gal activity at pH 6 (senescence), result in words: increases in β-gal activity; also recorded: greater effect than with IFNα2 alone
OCI-My5 [4]; OCI-My5, 1 nM, 3 days (also 4, 6, 7 days)
  β-gal activity at pH 6 (senescence), result in words: little or no increase in β-gal activity
OCI-My5 [4]; OCI-My 5, footnote †
  Mode of Action of anti-CD138-IFNα fusion: senescence†
MM1-144 [5]
  β-gal activity at pH 6 (senescence), result in words: increases in β-gal activity
ANBL-6 [6]
  β-gal activity at pH 6 (senescence), result in words: no increases
U266 [7]
  β-gal activity at pH 6 (senescence), result in words: no increase under any conditions
OCI-My5 [8]
  cell viability / growth inhibition (MTS assay), result in words: more effective than untargeted anti-CD20-IFNα; also recorded: more effective at decreasing cell viability than IFNα alone
OCI-My5 [8]; listed as Anti-CD138-IFNα2
  cell viability / growth inhibition (MTS assay), result in words: more effective than recombinant IFNα2
MM1-144 [9]
  cell viability / growth inhibition (MTS assay), result in words: more effective than untargeted anti-CD20-IFNα; also recorded: more effective at decreasing cell viability than IFNα alone
MM1-144 [9]; listed as Anti-CD138-IFNα2
  cell viability / growth inhibition (MTS assay), result in words: more effective than recombinant IFNα2
ANBL-6 [10]
  cell viability / growth inhibition (MTS assay), result in words: more effective than untargeted anti-CD20-IFNα; also recorded: more effective at decreasing cell viability than IFNα alone
ANBL-6 [10]; listed as Anti-CD138-IFNα
  cell viability / growth inhibition (MTS assay), result in words: more effective than anti-CD138-mutIFNα
ANBL-6 [10]; listed as Anti-CD138-IFNα2
  cell viability / growth inhibition (MTS assay), result in words: more effective than recombinant IFNα2
U266 [11]
  cell viability / growth inhibition (MTS assay), result in words: more effective than untargeted anti-CD20-IFNα; also recorded: more effective at decreasing cell viability than IFNα alone
8226/S
  cell viability / growth inhibition (MTS assay), result in words: intermediate effect; also recorded: more effective at decreasing cell viability than IFNα alone
8226/S; listed as Anti-CD138-IFNα2
  cell viability / growth inhibition (MTS assay), result in words: some effect was observed only at high concentrations
[12]; 25 nM, 72 h
  viability of primary myeloma cells, result in words: little effect
[12]; 100 nM, 72 hours
  viability of primary myeloma cells, result in words: significantly reduce cell viability
OCI-My5 [13]
  % G1: 25.6%
  % G2/M: 20.5%
  % S: 49.0%
  >G2: 1.5%
  Sub G0/G1: 17.9%
  changes in cell cycle / DNA content, result in words: did not cause apoptosis or blocks to cell cycle progression
MM1-144 [14]
  % G1: 22.6%
  % G2/M: 34.3%
  % S: 29.9%
  >G2: 11.2%
  Sub G0/G1: 11.3%
ANBL-6 [15]
  % G1: 63.6%
  % G2/M: 18.0%
  % S: 14.0%
  >G2: 0.0%
  Sub G0/G1: 19.6%

Reference: patent publication US9803021B2 (The Regents of the University of California, priority 2012, dated 2017)
